# In article PMC11033320, “Activation of p53 signaling and regression of breast and prostate carcinoma cells by spirooxindole-benzimidazole small molecules” (Frontiers in Pharmacology, 2024):
# Assays:
# [1] = biological target: T1, Mdm2 (residues 1–118 T47W) (Homo sapiens, UniProt Q00987, T47W); assay: MDM2 binding by microscale thermophoresis (MST)
# T1 construct: Mdm2 (residues 1–118 T47W; 500 nM)
# Method: MST is a complementary biophysical assay to assess the binding of a small molecule to its receptor. […] Experiments were performed in 50 mM phosphate buffer at pH 7.4 containing 150 mM NaCl, 5 mM DTT, and 5% DMSO. […] Kd values and uncertainties were calculated using the MO Affinity Analysis software.
# CCRF-CEM = assay: NCI anticancer screening, Leukemia CCRF-CEM; assay type: cell-based; settings: Homo sapiens, read-out: % Growth Inhibition (GI %)
# Text: (§1) The compound has been processed according to standard method NCI-60 Human Tumor Cell Lines Screen for organic compound at development therapeutic program (DTP). Requests for access to this national resource can be submitted online at: […]
# HL-60(TB) = assay: NCI anticancer screening, Leukemia HL-60(TB); assay type: cell-based; settings: Homo sapiens, read-out: % Growth Inhibition (GI %)
# Text: as §1
# SR = assay: NCI anticancer screening, Leukemia SR; assay type: cell-based; settings: Homo sapiens, read-out: % Growth Inhibition (GI %)
# Text: as §1
# EKVX = assay: NCI anticancer screening, Non-Small Cell Lung Cancer EKVX; assay type: cell-based; settings: Homo sapiens, read-out: % Growth Inhibition (GI %)
# Text: as §1
# HOP-62 = assay: NCI anticancer screening, Non-Small Cell Lung Cancer HOP-62; assay type: cell-based; settings: Homo sapiens; HOP-62, 10 μM; read-out: % Growth Inhibition (GI %)
# Text: as §1
# NCI-H23 = assay: NCI anticancer screening, Non-Small Cell Lung Cancer NCI-H23; assay type: cell-based; settings: Homo sapiens; NCI-H23, 10 μM; read-out: % Growth Inhibition (GI %)
# Text: as §1
# COLO 205 = assay: NCI anticancer screening, Colon Cancer COLO 205; assay type: cell-based; settings: Homo sapiens; COLO 205, 10 μM; read-out: % Growth Inhibition (GI %)
# Text: as §1
# HCC-2998 = assay: NCI anticancer screening, Colon Cancer HCC-2998; assay type: cell-based; settings: Homo sapiens; HCC-2998, 10 μM; read-out: % Growth Inhibition (GI %)
# Text: as §1
# HCT-116 = assay: NCI anticancer screening, Colon Cancer HCT-116; assay type: cell-based; settings: Homo sapiens; HCT-116, 10 μM; read-out: % Growth Inhibition (GI %)
# Text: as §1
# HCT-15 = assay: NCI anticancer screening, Colon Cancer HCT-15; assay type: cell-based; settings: Homo sapiens; HCT-15, 10 μM; read-out: % Growth Inhibition (GI %)
# Text: as §1
# SF-295 = assay: NCI anticancer screening, CNS Cancer SF-295; assay type: cell-based; settings: Homo sapiens; SF-295, 10 μM; read-out: % Growth Inhibition (GI %)
# Text: as §1
# SF-539 = assay: NCI anticancer screening, CNS Cancer SF-539; assay type: cell-based; settings: Homo sapiens; SF-539, 10 μM; read-out: % Growth Inhibition (GI %)
# Text: as §1
# SNB-75 = assay: NCI anticancer screening, CNS Cancer SNB-75; assay type: cell-based; settings: Homo sapiens; SNB-75, 10 μM; read-out: % Growth Inhibition (GI %)
# Text: as §1
# U251 = assay: NCI anticancer screening, CNS Cancer U251; assay type: cell-based; settings: Homo sapiens, U-251; U251, 10 μM; read-out: % Growth Inhibition (GI %)
# Text: as §1
# MDA-MB-435 = assay: NCI anticancer screening, Melanoma MDA-MB-435; assay type: cell-based; settings: Homo sapiens; MDA-MB-435, 10 μM; read-out: % Growth Inhibition (GI %)
# Text: as §1
# SK-MEL-2 = assay: NCI anticancer screening, Melanoma SK-MEL-2; assay type: cell-based; settings: Homo sapiens; SK-MEL-2, 10 μM; read-out: % Growth Inhibition (GI %)
# Text: as §1
# IGROV1 = assay: NCI anticancer screening, Ovarian Cancer IGROV1; assay type: cell-based; settings: Homo sapiens, IGROV-1; IGROV1, 10 μM; read-out: % Growth Inhibition (GI %)
# Text: as §1
# OVCAR-3 = assay: NCI anticancer screening, Ovarian Cancer OVCAR-3; assay type: cell-based; settings: Homo sapiens; OVCAR-3, 10 μM; read-out: % Growth Inhibition (GI %)
# Text: as §1
# OVCAR-5 = assay: NCI anticancer screening, Ovarian Cancer OVCAR-5; assay type: cell-based; settings: Homo sapiens; OVCAR-5, 10 μM; read-out: % Growth Inhibition (GI %)
# Text: as §1
# OVCAR-8 = assay: NCI anticancer screening, Ovarian Cancer OVCAR-8; assay type: cell-based; settings: Homo sapiens; OVCAR-8, 10 μM; read-out: % Growth Inhibition (GI %)
# Text: as §1
# NCI/ADR-RES = assay: NCI anticancer screening, Ovarian Cancer NCI/ADR-RES; assay type: cell-based; settings: Homo sapiens, read-out: % Growth Inhibition (GI %)
# Text: as §1
# SK-OV-3 = assay: NCI anticancer screening, Ovarian Cancer SK-OV-3; assay type: cell-based; settings: Homo sapiens; SK-OV-3, 10 μM; read-out: % Growth Inhibition (GI %)
# Text: as §1
# A498 = assay: NCI anticancer screening, Renal Cancer A498; assay type: cell-based; settings: Homo sapiens; A498, 10 μM; read-out: % Growth Inhibition (GI %)
# Text: as §1
# ACHN = assay: NCI anticancer screening, Renal Cancer ACHN; assay type: cell-based; settings: Homo sapiens, read-out: % Growth Inhibition (GI %)
# Text: as §1
# CAKI-1 = assay: NCI anticancer screening, Renal Cancer CAKI-1; assay type: cell-based; settings: Homo sapiens; CAKI-1, 10 μM; read-out: % Growth Inhibition (GI %)
# Text: as §1
# SN12C = assay: NCI anticancer screening, Renal Cancer SN12C; assay type: cell-based; settings: Homo sapiens, read-out: % Growth Inhibition (GI %)
# Text: as §1
# TK-10 = assay: NCI anticancer screening, Renal Cancer TK-10; assay type: cell-based; settings: Homo sapiens; TK-10, 10 μM; read-out: % Growth Inhibition (GI %)
# Text: as §1
# MDA-MB-468 = assay: NCI anticancer screening, Breast Cancer MDA-MB-468; assay type: cell-based; settings: Homo sapiens, read-out: % Growth Inhibition (GI %)
# Text: as §1
# T1 sequence (Q00987 1-118 T47W): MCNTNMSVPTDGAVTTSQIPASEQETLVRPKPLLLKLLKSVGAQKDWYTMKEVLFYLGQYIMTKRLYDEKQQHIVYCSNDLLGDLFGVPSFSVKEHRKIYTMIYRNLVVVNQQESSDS
Structure (SMILES),inhibition at 10 µM (CCRF-CEM) [%],inhibition at 10 µM (HL-60(TB)) [%],inhibition at 10 µM (SR) [%],inhibition at 10 µM (EKVX) [%],inhibition at 10 µM (HOP-62) [%],inhibition at 10 µM (NCI-H23) [%],inhibition at 10 µM (COLO 205) [%],inhibition at 10 µM (HCC-2998) [%],inhibition at 10 µM (HCT-116) [%],inhibition at 10 µM (HCT-15) [%],inhibition at 10 µM (SF-295) [%],inhibition at 10 µM (SF-539) [%],inhibition at 10 µM (SNB-75) [%],inhibition at 10 µM (U251) [%],inhibition at 10 µM (MDA-MB-435) [%],inhibition at 10 µM (SK-MEL-2) [%],inhibition at 10 µM (IGROV1) [%],inhibition at 10 µM (OVCAR-3) [%],inhibition at 10 µM (OVCAR-5) [%],inhibition at 10 µM (OVCAR-8) [%],also measured
"O=C(c1nc2ccccc2[nH]1)[C@H]1[C@H](c2cccs2)C2CSCN2[C@]12C(=O)Nc1ccccc12 (stereo partly drawn) [Compound 6e, (3S,6′R)-6'-(1H-Benzo [d]imidazole-2-carbonyl)-7'-(thiophen-2-yl)-3′,6′,7′,7a′-tetrahydro-1′H-spiro [indoline-3.5′-pyrrolo [1,2-c]thiazol]-2-one]",104,94.1,101,100,99.5,103,112,108,96.3,100,92.6,101,85.9,100,100,111,89.7,105,96.2,96.8,Kd [1]: 113 µM; inhibition at 10 µM (NCI/ADR-RES): 102%; inhibition at 10 µM (SK-OV-3): 101%; inhibition at 10 µM (A498): 79.7%; inhibition at 10 µM (ACHN): 103%; inhibition at 10 µM (CAKI-1): 89.6%; inhibition at 10 µM (SN12C): 97.5%; inhibition at 10 µM (TK-10): 106%; inhibition at 10 µM (MDA-MB-468): 100%
"O=C(c1nc2ccccc2[nH]1)[C@H]1[C@H](c2ccc(F)cc2)C2CSCN2[C@]12C(=O)Nc1ccccc12 (stereo partly drawn) [Compound 6f, (3S,6′R)-6'-(1H-Benzo [d]imidazole-2-carbonyl)-7'-(4-fluorophenyl)-3′,6′,7′,7a′-tetrahydro-1′H-spiro [indoline-3.5′-pyrrolo [1,2-c]thiazol]-2-one]",98.2,93.1,81.3,93.8,104,98,109,97,92.9,93.6,77.9,97.7,89.8,93.5,94.6,102,93.2,101,100,94.7,inhibition at 10 µM (NCI/ADR-RES): 99.4%; inhibition at 10 µM (SK-OV-3): 102%; inhibition at 10 µM (A498): 57.2%; inhibition at 10 µM (ACHN): 94.2%; inhibition at 10 µM (CAKI-1): 90%; inhibition at 10 µM (SN12C): 91.1%; inhibition at 10 µM (TK-10): 101%; inhibition at 10 µM (MDA-MB-468): 94.2%
"COc1cc([C@@H]2C3CSCN3[C@]3(C(=O)Nc4ccccc43)[C@H]2C(=O)c2nc3ccccc3[nH]2)cc(OC)c1OC (stereo partly drawn) [Compound 6i, (3S,6′R)-6'-(1H-Benzo [d]imidazole-2-carbonyl)-7'-(3,4,5-trimethoxyphenyl)-3′,6′,7′,7a′-tetrahydro-1′H-spiro [indoline-3.5′-pyrrolo [1,2-c]thiazol]-2-one]",104,103,91.8,100,104,104,114,108,102,105,95.2,99.6,94.1,103,101,115,95.8,109,94.3,99.3,inhibition at 10 µM (NCI/ADR-RES): 104%; inhibition at 10 µM (SK-OV-3): 102%; inhibition at 10 µM (A498): 81.7%; inhibition at 10 µM (ACHN): 107%; inhibition at 10 µM (CAKI-1): 92.6%; inhibition at 10 µM (SN12C): 99%; inhibition at 10 µM (TK-10): 104%; inhibition at 10 µM (MDA-MB-468): 99.6%
